Paper PMC5790467, “Enhanced anti-tumor efficacy and mechanisms associated with docetaxel-piperine combination- in vitro and in vivo investigation using a taxane-resistant prostate cancer model” (Oncotarget, 2017)
Where two headings read alike, the source gives them in different places.

Columns and labels:
[1] = tested on: PC3-TxR tumor xenografts; assay: Tumor growth in mice with PC3-TxR (taxane-resistant) tumor xenografts; assay type: in vivo, ICR-NOD/SCID mice; conditions: DTX 20 mg/kg once a week i.v.
Description: (§1) The following experimental protocol was adopted after approval by the Animal Research Ethics Committee at the Chinese University of Hong Kong. PC3 and PC3-TxR cells were cultured in RPMI 1640 medium containing 10% FBS and 1% penicillin-streptomycin in a humidified atmosphere of 5% CO2 at 37°C. PC3 and PC3-TxR cell pellets were re-suspended in serum free RPMI1640 and diluted by Matrigel™ Basement Membrane Matrix (BD Biosciences, Bedford, MA, USA) to the density of 3.33 × 10^6cells/ml. Male ICR-NOD/SCID mice (Laboratory Animal Services Center at the Chinese University of Hong Kong) weighing 25 to 30 g (age 6–8 weeks) was anesthetized with an intraperitoneal injection of a cocktail containing 87 mg/kg ketamine and 8.7 mg/kg xylazine (diluted with saline and the injection volume was about 0.1 ml). The cell suspension was injected subcutaneously to both the left and right flank region. The tumors were allowed to grow for about 2 weeks. Tumor volumes were measured twice per week (tumor volume = [(W^2 × L)/2], where W is the tumor measurement at the widest point, and L is the tumor dimension at the longest point). When the tumors reach about 100 mm^3, treatment was started and the date was designated as Day 0.

[2] = Body weight and tolerability in mice with TxR tumor xenografts; conditions: TxR tumor xenograft mice; two weeks of treatment; control 96%
Description: For oral administration of PIP, in 1 ml of PIP dosing solution, 100 µl of its stock solution was solubilized with 500 µl of PEG 400 and 400 µl of physiological saline and the mixture was administrated orally to mice at the dose of 0.1 ml/10 g body weight. […] On Day 0, mice with PC3 cell xenografts were divided into two groups and mice with PC3-TxR cell xenografts were divided into four groups. Mice in each group were treated according to Supplementary Table 3 and the drug dosing lasted for 2 weeks with body weight and tumor sized measured twice per week. […] At the end of experiment, the mice were anesthetized followed by haemospasia to death by cardiac puncture.

[3] = DTX concentration in plasma and tissues of TxR tumor bearing mice (LC/MS/MS); assay type: in vivo, ICR-NOD/SCID mice; conditions: for concentration at 2 h: ICR-NOD/SCID, mouse, iv, 20 mg/kg
Description: On Day 14, mice were sacrificed two hours post drug administration. Blood samples were collected by cardiac puncture followed by centrifugation at 5000 rpm for 3 min for obtaining the plasma. Brain, lung, liver, kidney and tumor were collected and weighed. About 100 mg of each tissue samples were carefully weighed and homogenized after being spiked with 300 µl of formic acid (0.2%, v/v). About 50 µl of plasma or tissue homogenates were spiked with 5 µl of 50% acetonitrile in water and 150 µl of mixture of acetonitrile and methanol (50:50, v/v) containing glibenclamide at 50 ng/ml as internal standard. After centrifugation at 13000 rpm for 10 min, the supernatants were injected into LC/MS/MS system which consisted of an Agilent 6430 triple quadrupole mass spectrometer equipped with an electrospray ionization source (ESI), two Agilent 1290 series pumps and autosampler (Agilent Technologies, Inc., CA, USA). The analytes were separated using a Waters Nova-Pak^ÒC18 column (150 mm×3.9 mm, i.d., 4 µm particle size) protected by a collared frit (4/4.6 mm i.d., 0.5 µm pore size, Thermo Scientific full name, city, state, country). The mobile phase consisted of 0.2% formic acid and acetonitrile (50:50, v/v) with a flow rate at 0.4 ml/min.

[4] = tested on: PC3 tumor xenografts; assay: Tumor growth in mice with PC3 tumor xenografts; assay type: in vivo, ICR-NOD/SCID mice; conditions: DTX 20 mg/kg once a week i.v., n = 3
Description: as §1

[5] = target: P-gp (Homo sapiens, UniProt P08183); assay: Uptake of DTX in MDCK/MDR1 cells with or without PIP pre-incubation; assay type: cell-based; parameters: expressed in transfected cells; host or cells: MDCK (MDCK/MDR1), gift from Prof; P. Borst
Sequence of P-gp (P08183 whole entry): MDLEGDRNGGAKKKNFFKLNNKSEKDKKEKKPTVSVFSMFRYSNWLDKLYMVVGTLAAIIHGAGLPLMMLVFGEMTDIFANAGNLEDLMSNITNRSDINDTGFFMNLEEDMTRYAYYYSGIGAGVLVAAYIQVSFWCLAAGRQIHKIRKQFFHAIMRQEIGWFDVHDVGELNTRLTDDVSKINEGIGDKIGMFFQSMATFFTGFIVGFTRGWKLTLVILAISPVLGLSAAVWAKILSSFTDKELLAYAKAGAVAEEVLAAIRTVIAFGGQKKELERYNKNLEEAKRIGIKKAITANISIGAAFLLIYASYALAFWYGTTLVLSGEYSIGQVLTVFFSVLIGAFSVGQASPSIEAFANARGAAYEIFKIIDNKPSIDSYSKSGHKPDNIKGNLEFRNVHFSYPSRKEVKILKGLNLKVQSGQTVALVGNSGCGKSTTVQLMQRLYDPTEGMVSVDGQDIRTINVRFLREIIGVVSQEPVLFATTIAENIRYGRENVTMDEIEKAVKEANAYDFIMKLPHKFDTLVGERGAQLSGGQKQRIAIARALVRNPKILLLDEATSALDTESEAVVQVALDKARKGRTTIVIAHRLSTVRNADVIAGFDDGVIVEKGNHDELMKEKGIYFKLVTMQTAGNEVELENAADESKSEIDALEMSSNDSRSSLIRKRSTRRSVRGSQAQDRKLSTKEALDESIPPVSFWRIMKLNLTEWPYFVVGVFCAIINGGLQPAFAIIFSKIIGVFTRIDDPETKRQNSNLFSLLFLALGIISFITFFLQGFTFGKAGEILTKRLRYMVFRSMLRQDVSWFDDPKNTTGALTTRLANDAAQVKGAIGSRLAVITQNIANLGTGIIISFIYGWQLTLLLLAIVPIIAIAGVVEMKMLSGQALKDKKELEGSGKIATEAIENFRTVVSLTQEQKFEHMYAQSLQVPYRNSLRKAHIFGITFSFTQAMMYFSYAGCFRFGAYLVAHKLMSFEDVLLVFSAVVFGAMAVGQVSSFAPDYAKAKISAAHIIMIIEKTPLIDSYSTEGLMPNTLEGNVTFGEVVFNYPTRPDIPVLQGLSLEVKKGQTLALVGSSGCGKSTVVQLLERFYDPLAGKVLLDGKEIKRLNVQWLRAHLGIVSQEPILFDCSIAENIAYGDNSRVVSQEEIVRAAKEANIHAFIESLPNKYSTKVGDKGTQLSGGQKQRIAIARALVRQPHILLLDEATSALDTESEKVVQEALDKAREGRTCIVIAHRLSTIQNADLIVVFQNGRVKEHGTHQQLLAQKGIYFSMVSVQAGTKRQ
Description: MDCK cells transfected with human gene (MDCK/MDR1) were cultured in Dulbecco’s modified Eagle’s medium supplemented with 10% FBS and 1% penicillin-streptomycin. Cells were subcultured when the confluence reached 80% by trypsinization with 0.25% of trypsin-EDTA. MDCK/MDR1 cells were seeded at a density of 2 × 10^5 cells/well to 24-well and incubated for 24 h. […] After washing twice with ice-cold HBSS, cells were collected in 100 µl of formic acid (0.2%, v/v) using a scraper. BCA Protein Quantification Kit (Abcamplc., Cambridge, UK) was used to quantify the protein content. Cell lysate was treated by 300 µl of mixture of acetonitrile and methanol (50:50, v/v) containing glibenclamide at 50 ng/ml, followed by sonication for 15 min.

[6] = tested on: PC3-TxR cells; assay: Cell viability (cytotoxicity) of PC3-TxR cells; assay type: cell-based; conditions: Homo sapiens
Text: www.impactjournals.com/oncotarget/ Oncotarget, Supplementary Materials 2017
investigation using a taxane-resistant prostate cancer model
Supplementary Figure 1: Cell viability (measured from triplicate samples) of PC3-TxR cells. (A) The cytotoxicity of PIP
(1 picture or pasted object on this page, not shown here)

[7] = ketoconazole 200 mg once daily for three days; cancer patients; cited from earlier work
[8] = Day 14, two hours after i.v. bolus DTX, TxR mice

Structure (SMILES): CC(=O)O[C@@]12CO[C@@H]1C[C@H](O)[C@@]1(C)C(=O)[C@H](O)C3=C(C)[C@@H](OC(=O)[C@H](O)[C@@H](NC(=O)OC(C)(C)C)c4ccccc4)C[C@@](O)([C@@H](OC(=O)c4ccccc4)[C@H]21)C3(C)C [DTX, Docetaxel]
- percentage of tumor size increase ([1]; TxR tumor xenografts, two weeks after drug administration, PIP 50 mg/kg daily p.o.): 217%
- inhibitory effect on the tumor growth in TxR tumor xenografts ([1]; model verification experiment, n = 3): no inhibitory effect
- percentage of bodyweights [2]: 79%
- DTX plasma concentration [3, 8]: 703.847 ± 311.129 ng/mL
- DTX tissue concentration, Brain [3, 8]: 0.022 ± 0.009 ng/mg
- DTX tissue concentration, Kidney [3, 8]: 2.322 ± 1.447 ng/mg
- DTX tissue concentration, Liver [3, 8]: 1.080 ± 0.763 ng/mg
- DTX tissue concentration, Tumor [3, 8]: 1.312 ± 0.754 ng/mg
- concentration at 2 h ([3]; brain): 22 ng/g
- concentration at 2 h ([3]; kidney): 2320 ng/g
- concentration at 2 h ([3]; liver): 1080 ng/g
- concentration at 2 h ([3]; lung): 5160 ± 2890 ng/g
- concentration at 2 h ([3]; plasma): 704 ng/mL
- concentration at 2 h ([3]; tumor): 1310 ng/g
- percentage of tumor size increase [4]: 55%
- cell uptake of DTX ([5]; DTX 1 μM, absence of PIP): 0.35 ± 0.05 nmol/min/mg protein
- cell uptake of DTX ([5]; DTX 5 μM, absence of PIP): 2.44 ± 0.14 nmol/min/mg protein
- cell uptake of DTX ([5]; DTX 5 μM, after pre-incubation with PIP): 3.57 ± 0.75 nmol/min/mg protein
- cell uptake of DTX ([5]; DTX 10 μM, absence of PIP): 3.30 ± 0.38 nmol/min/mg protein
- cell uptake of DTX ([5]; DTX 10 μM, after pre-incubation with PIP): 5.20 ± 0.53 nmol/min/mg protein
- IC50 ([6]; read-out: IC50 of DTX on PC3-TxR, DTX + 5 μg/ml PIP): 17.6 nM
- IC50 ([6]; read-out: IC50 of DTX on PC3-TxR, DTX + 10 μg/ml PIP): 10.4 nM
- IC50 ([6]; read-out: IC50 of DTX on PC3-TxR, DTX + 25 μg/ml PIP): 5.5 nM
- IC50 ([6]; read-out: IC50 of DTX on PC3-TxR, DTX alone): 41.4 nM

Structure (SMILES): CC(=O)N1CCN(c2ccc(OCC3COC(Cn4ccnc4)(c4ccc(Cl)cc4Cl)O3)cc2)CC1 (stereo not shown) [Ketoconazole]
- reduction of the clearance of DTX [7]: 49%
